Test results: patent US20210238139A1, “MODULATORS OF TRYPTOPHAN CATABOLISM” (E-Therapeutics PLC, priority 2018, published 2021)

Test system: SK-OV-3 cells
Test: Effect of compounds on tryptophan catabolism in SK-OV-3 cell line (inhibition of kynurenine production, LC-MS/MS)
Type: cell-based
Conditions: Homo sapiens, SK-OV-3, 24 h, SK-OV-3 cell line, 24 h incubation, kynurenine in supernatant by LC-MS/MS; read-out: IC50 Ranges (ic50 values for inhibition of Kynurenine production)
Experimental: SK-OV-3 cells are seeded in 96-well plates in McCoy's 5A medium supplemented with 10% FBS and incubated overnight at 37° C., 5% CO2, 95% humidity. The […] growth medium is replaced with DMEM F-12 medium supplemented with 6 mg/mL L-tryptophan. Compounds are added to the wells and incubated for 24 h at 37° C., 5% CO2, 95% humidity. Compounds are tested at 8 consecutive 3-fold dilutions starting from 30 μM in duplicate. At the end of incubation, concentration of kynurenine in cell supernatants is […] determined by LC-MS/MS. In parallel, cell viability is assessed by measurement of ATP using CellTiter Glo assay (Promega), according to manufacturer's protocol. Inhibition of Kyn production is calculated using the following formula: […] IC50 ranges for compounds of the invention are presented in Table 2, whereby the IC50 ranges are as follows: • A: […]

Q: For Cc1ccc(CN(C(=O)Nc2ccc(C#N)cc2)c2ccccn2)o1 [Compound 283, 3-(4-cyanophenyl)-1-[(5-methyl-2-furyl)methyl]-1-(2-pyridyl)urea], which IC50 is on record?
A: 1000 to 5000 nM

Q: With Cc1ccc(CN(C(=O)Nc2ccc(C#N)cc2)c2cnn(C)c2)o1 [Compound 218, 3-(4-cyanophenyl)-1-[(5-methyl-2-furyl)methyl]-1-(1-methylpyrazol-4-yl)urea] as the compound, how does the IC50 read?
A: 500 to 1000 nM

Q: Which IC50 does the source give for N#Cc1cccc(CN(C(=O)Nc2ccc(F)cc2)C2CCCC2)n1 [Compound 126, 1-[(6-cyano-2-pyridyl)methyl]-1-cyclopentyl-3-(4-fluorophenyl)urea] here?
A: 500 to 1000 nM

Q: With Cc1ccc(CN(C(=O)Nc2nnc(-c3ccccc3)o2)C2CCCC2)o1 [Compound 175, 1-cyclopentyl-1-[(5-methyl-2-furyl)methyl]-3-(5-phenyl-1,3,4-oxadiazol-2-yl) urea] as the compound, how does the IC50 read?
A: 500 to 1000 nM

Q: Which IC50 does the source give for CC(C)(C)OC(=O)N1CCC(CN(C(=O)Nc2ccc(F)cc2)C2CCCC2)CC1 [Compound 119, tert-butyl 4-[[cyclopentyl-[(4-fluorophenyl)carbamoyl]amino]methyl]piperidine-1-carboxylate] here?
A: 500 to 1000 nM

Q: For O=C(Nc1ccccc1F)N(Cc1cccs1)C1CCCC1 [Compound 54, 1-cyclopentyl-3-(2-fluorophenyl)-1-(2-thienylmethyl)urea], which IC50 is on record?
A: 1000 to 5000 nM

Q: O=C(Nc1ccc(Cl)cc1)N(Cc1nc2ccccc2s1)C1CCC1 [Compound 248, 1-(1,3-benzothiazol-2-ylmethyl)-3-(4-chlorophenyl)-1-cyclobutyl-urea] was tested. Which IC50 did it give?
A: 100 to 500 nM

Q: How did the IC50 turn out when CC(c1cccc(C#N)c1)N(C(=O)Nc1ccc(F)cc1)C1CCCC1 (racemic) [Compound 187, 1-[1-(3-cyanophenyl)ethyl]-1-cyclopentyl-3-(4-fluorophenyl)urea] was run?
A: 100 to 500 nM

Q: Which IC50 does the source give for Cc1ccc(CN(C(=O)Nc2ccc(C#N)cc2)C2CC3(COC3)C2)o1 [Compound 287, 3-(4-cyanophenyl)-1-[(5-methyl-2-furyl)methyl]-1-(2-oxaspiro[3.3]heptan-6-yl)urea] here?
A: > 5000 nM

Q: How did the IC50 turn out when Cc1ccc(CN(C(=O)Nc2ccccc2)C(C)C)o1 [Compound 138, 1-isopropyl-1-[(5-methyl-2-furyl)methyl]-3-phenyl-urea] was run?
A: 1000 to 5000 nM

Q: Cc1ccc(CN(C(=O)Nc2ccc(F)c(F)c2)C2CCCC2)o1 [Compound 31, 1-cyclopentyl-3-(3,4-difluorophenyl)-1-[(5-methyl-2-furyl)methyl]urea] was tested. Which IC50 did it give?
A: 100 to 500 nM

Q: Which IC50 does the source give for Cc1ccc(CN(C(=O)Nc2nc(-c3ccccc3)cs2)C2CCCC2)o1 [Compound 129, 1-cyclopentyl-1-[(5-methyl-2-furyl)methyl]-3-(4-phenylthiazol-2-yl)urea] here?
A: 1000 to 5000 nM

Q: For CC(c1cccc(C#N)c1)N(C(=O)Nc1ccc(C#N)cc1)C1CCC1 (racemic) [Compound 184, 3-(4-cyanophenyl)-1-[1-(3-cyanophenyl)ethyl]-1-cyclobutyl-urea], which IC50 is on record?
A: 100 to 500 nM

Q: With CC(c1ccccn1)N(C(=O)Nc1ccc(Cl)cc1)C1CCCC1 (racemic) [Compound 174, 3-(4-chlorophenyl)-1-cyclopentyl-1-[1-(2-pyridyl)ethyl]urea] as the compound, how does the IC50 read?
A: 100 to 500 nM

Q: For O=C(Nc1ccc(F)c(F)c1)N(Cc1cccs1)C1CCCC1 [Compound 4, 1-cyclopentyl-3-(3,4-difluorophenyl)-1-(2-thienylmethyl)urea], which IC50 is on record?
A: 500 to 1000 nM

Q: For O=C(Nc1ccncc1)N(Cc1cccc(C(F)(F)F)c1)C1CCCC1 [Compound 88, 1-cyclopentyl-3-(4-pyridyl)-1-[[3-(trifluoromethyl)phenyl]methyl]urea], which IC50 is on record?
A: 500 to 1000 nM

Q: For CC(c1cccc(C#N)c1)N(C(=O)Nc1ccc(C#N)cc1)C1CCCC1 (racemic) [Compound 188, 3-(4-cyanophenyl)-1-[1-(3-cyanophenyl)ethyl]-1-cyclopentyl-urea], which IC50 is on record?
A: 100 to 500 nM

Q: Cc1ccc(CN(C(=O)Nc2ccc(C#CCN(C)C)cc2)C2CCCC2)o1 [Compound 112, 1-cyclopentyl-3-[4-[3-(dimethylamino)prop-1-ynyl]phenyl]-1-[(5-methyl-2-furyl)methyl]urea] was tested. Which IC50 did it give?
A: 500 to 1000 nM

Q: How did the IC50 turn out when Cc1ccc(CN(C(=O)Nc2ccc(C#N)cn2)C2CCCC2)o1 [Compound 121, 3-(5-cyano-2-pyridyl)-1-cyclopentyl-1-[(5-methyl-2-furyl)methyl]urea] was run?
A: 500 to 1000 nM

Q: For COc1ccc(NC(=O)N(Cc2ccc(C)o2)C2CCCC2)cc1 [Compound 290, 1-cyclopentyl-3-(4-methoxyphenyl)-1-[(5-methyl-2-furyl)methyl]urea], which IC50 is on record?
A: 100 to 500 nM

Q: CC1(CN(C(=O)Nc2ccc(F)cc2)C2CCCC2)CCN(S(C)(=O)=O)CC1 [Compound 113, 1-cyclopentyl-3-(4-fluorophenyl)-1-[(4-methyl-1-methylsulfonyl-4-piperidyl)methyl]urea] was tested. Which IC50 did it give?
A: 1000 to 5000 nM

Q: With O=C(Nc1ccc(Cl)cc1)N(Cc1ccno1)C1CCCC1 [Compound 128, 3-(4-chlorophenyl)-1-cyclopentyl-1-(isoxazol-5-ylmethyl)urea] as the compound, how does the IC50 read?
A: 500 to 1000 nM

Q: For N#Cc1ccc(NC(=O)N(Cc2ccc3scnc3c2)C2CCC2)cc1 [Compound 261, 1-(1,3-benzothiazol-5-ylmethyl)-3-(4-cyanophenyl)-1-cyclobutyl-urea], which IC50 is on record?
A: < 100 nM

Q: Which IC50 does the source give for O=C(Nc1ccc(Cl)cc1)N(Cc1cc2ccccn2n1)C1CCC1 [Compound 239, 3-(4-chlorophenyl)-1-cyclobutyl-1-(pyrazolo[1,5-a]pyridin-2-ylmethyl)urea] here?
A: 100 to 500 nM

Q: O=C(Nc1ccc(Cl)cc1)N(Cc1ncccn1)C1CCCC1 [Compound 73, 3-(4-chlorophenyl)-1-cyclopentyl-1-(pyrimidin-2-ylmethyl)urea] was tested. Which IC50 did it give?
A: 1000 to 5000 nM

Q: With O=C(Nc1ccc(F)cc1)N(Cc1cnccn1)C1CCCC1 [Compound 70, 1-cyclopentyl-3-(4-fluorophenyl)-1-(pyrazin-2-ylmethyl)urea] as the compound, how does the IC50 read?
A: > 5000 nM

Q: How did the IC50 turn out when N#Cc1ccc(NC(=O)N(Cc2ccc3ocnc3c2)C2CCC2)cc1 [Compound 223, 1-(1,3-benzoxazol-5-ylmethyl)-3-(4-cyanophenyl)-1-cyclobutyl-urea] was run?
A: 100 to 500 nM

Q: For O=C(Nc1ccc(F)c(F)c1)N(Cc1ccccn1)C1CCCCC1 [Compound 33, 1-cyclohexyl-3-(3,4-difluorophenyl)-1-(2-pyridylmethyl)urea], which IC50 is on record?
A: > 5000 nM

Q: With C#Cc1ccc(NC(=O)N(Cc2ccno2)C2CCCC2)cc1 [Compound 163, 1-cyclopentyl-3-(4-ethynylphenyl)-1-(isoxazol-5-ylmethyl)urea] as the compound, how does the IC50 read?
A: < 100 nM

Q: How did the IC50 turn out when COc1ccc(CN(C(=O)Nc2ccccc2)C2CCCC2)cc1C [Compound 45, 1-cyclopentyl-1-[(4-methoxy-3-methyl-phenyl)methyl]-3-phenyl-urea] was run?
A: 100 to 500 nM

Q: Which IC50 does the source give for Cc1nc(C)c(CN(C(=O)Nc2ccccc2)C2CCCC2)s1 [Compound 170, 1-cyclopentyl-1-[(2,4-dimethylthiazol-5-yl)methyl]-3-phenyl-urea] here?
A: 1000 to 5000 nM

Q: With C#Cc1ccc(NC(=O)N(Cc2ccc(C)o2)C2CCCC2)nc1 [Compound 16, 1-cyclopentyl-3-(5-ethynyl-2-pyridyl)-1-[(5-methyl-2-furyl)methyl]urea] as the compound, how does the IC50 read?
A: 100 to 500 nM

Q: For N#Cc1ccc(NC(=O)N(Cc2cc3ccccc3o2)C2CCC2)cc1 [Compound 234, 1-(benzofuran-2-ylmethyl)-3-(4-cyanophenyl)-1-cyclobutyl-urea], which IC50 is on record?
A: < 100 nM

Q: With O=C(NCc1ccc(F)cc1)N(Cc1cccs1)C1CCCC1 [Compound 8, 1-cyclopentyl-3-[(4-fluorophenyl)methyl]-1-(2-thienylmethyl)urea] as the compound, how does the IC50 read?
A: > 5000 nM

Q: Which IC50 does the source give for Cc1ccc(CN(C(=O)Nc2ccc(C#N)cc2)c2cnnn2C)o1 [Compound 268, 3-(4-cyanophenyl)-1-[(5-methyl-2-furyl)methyl]-1-(3-methyltriazol-4-yl)urea] here?
A: 500 to 1000 nM

Q: Which IC50 does the source give for NC(=O)c1cc(CN(C(=O)Nc2ccc(F)cc2)C2CCCC2)ccc1F [Compound 122, 5-[[cyclopentyl-[(4-fluorophenyl)carbamoyl]amino]methyl]-2-fluoro-benzamide] here?
A: 1000 to 5000 nM

Q: Which IC50 does the source give for CC(=O)c1ccc(NC(=O)N(Cc2ccc(C)o2)C2CCCC2)cc1 [Compound 94, 3-(4-acetylphenyl)-1-cyclopentyl-1-[(5-methyl-2-furyl)methyl]urea] here?
A: 1000 to 5000 nM

Q: With Cn1ncc(CN(C(=O)Nc2ccc(F)cc2)C2CCCC2)c1Cl [Compound 44, 1-[(5-chloro-1-methyl-pyrazol-4-yl)methyl]-1-cyclopentyl-3-(4-fluorophenyl) urea] as the compound, how does the IC50 read?
A: 500 to 1000 nM

Q: CN1CCC(N(Cc2ccc3ncsc3c2)C(=O)Nc2ccc(C#N)cc2)CC1 [Compound 264, 1-(1,3-benzothiazol-6-ylmethyl)-3-(4-cyanophenyl)-1-(1-methyl-4-piperidyl) urea] was tested. Which IC50 did it give?
A: > 5000 nM

Q: Which IC50 does the source give for Cc1ccc(C(C)N(C(=O)Nc2ccc(C#N)cc2)C2CCCC2)o1 (racemic) [Compound 190, 3-(4-cyanophenyl)-1-cyclopentyl-1-[1-(5-methyl-2-furyl)ethyl]urea] here?
A: 100 to 500 nM

Q: How did the IC50 turn out when Cc1ccc(CN(C(=O)Nc2ccc(Cl)cc2)c2csnc2C)o1 [Compound 328, 3-(4-chlorophenyl)-1-[(5-methyl-2-furyl)methyl]-1-(3-methylisothiazol-4-yl)urea] was run?
A: < 100 nM

Q: Which IC50 does the source give for N#Cc1ccc(CN(C(=O)Nc2ccc(F)cc2)C2CCCC2)o1 [Compound 61, 1-[(5-cyano-2-furyl)methyl]-1-cyclopentyl-3-(4-fluorophenyl)urea] here?
A: > 5000 nM

Q: Which IC50 does the source give for Cc1ccc(CN(C(=O)Nc2ccc(Cl)cc2)c2ncccc2C)o1 [Compound 318, 3-(4-chlorophenyl)-1-[(5-methyl-2-furyl)methyl]-1-(3-methyl-2-pyridyl)urea] here?
A: < 100 nM
